Experimental data: paper PMC10861534, “Poly-γ-glutamylation of biomolecules” (Nature Communications, 2024)

What was measured:
[1] = target: T1, hFPGS (Homo sapiens, UniProt Q05932); experiment: LC-MS of reaction products; type: biochemical; conditions: 5 mM analogue, 0.5 mM folate, 5 mM ATP, 10 mM MgCl2, pH 8.5, 37 °C; chain terminator
T1 construct: gene FPGS; ORF in pFastBacHTa, N-terminal His6-tag, Sf9 insect cells
T1 sequence (Q05932 43-587): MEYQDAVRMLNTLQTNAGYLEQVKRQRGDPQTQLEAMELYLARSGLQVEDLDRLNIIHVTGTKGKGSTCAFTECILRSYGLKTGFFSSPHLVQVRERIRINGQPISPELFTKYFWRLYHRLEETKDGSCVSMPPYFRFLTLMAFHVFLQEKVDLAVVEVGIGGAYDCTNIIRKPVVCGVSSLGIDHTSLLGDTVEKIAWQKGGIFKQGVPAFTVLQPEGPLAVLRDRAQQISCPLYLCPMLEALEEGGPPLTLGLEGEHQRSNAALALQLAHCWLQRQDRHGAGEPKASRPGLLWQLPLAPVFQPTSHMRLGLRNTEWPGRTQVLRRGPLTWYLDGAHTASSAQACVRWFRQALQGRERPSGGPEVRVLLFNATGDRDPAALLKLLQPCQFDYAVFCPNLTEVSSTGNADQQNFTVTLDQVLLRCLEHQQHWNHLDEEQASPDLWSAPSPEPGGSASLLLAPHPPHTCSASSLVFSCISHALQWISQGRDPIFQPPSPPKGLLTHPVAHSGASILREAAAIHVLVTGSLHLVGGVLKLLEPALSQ

[2] = target: T2, Af-CofE (Archaeoglobus fulgidus, UniProt O28028); experiment: LC-MS of reaction products; type: biochemical; conditions: 2 mM analogue, 50 uM F420-1, 2 mM GTP, 2 mM MgCl2/MnCl2, pH 8.5, 37 °C; chain terminator
T2 construct: codon-optimized ORF in pProEX-HTb, E. coli BL21(DE3) LOBSTR; N-terminal His6-tag removed by rTEV; co-purified flavins washed off with urea/KBr; homodimer

[3] = target: T3, Mtb-FPGS (Mycobacterium tuberculosis, UniProt I6Y0R5)
T3 construct: gene folC

[4] = target: Mtb-FbiB (Mycobacterium tuberculosis, UniProt P9WP79)
[5] = target: T4, Tm-DHFR (Thermotoga maritima, UniProt Q60034); experiment: 1H NMR of reaction; type: biochemical; conditions: 1 mM folate-2, 2 mM NADPH, pH 7.0, 37 °C; reduced to tetrahydrofolate-2
T4 construct: gene folA; synthesized ORF in pProEX-HTb, E. coli BL21(DE3) LOBSTR; TALON and SEC
T4 sequence (Q60034 1-169): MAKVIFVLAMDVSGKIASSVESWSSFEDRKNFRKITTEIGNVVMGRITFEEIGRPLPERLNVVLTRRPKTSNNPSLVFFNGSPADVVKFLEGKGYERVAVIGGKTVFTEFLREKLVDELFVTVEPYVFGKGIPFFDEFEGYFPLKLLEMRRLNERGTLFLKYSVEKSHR

T3 sequence (I6Y0R5 whole entry): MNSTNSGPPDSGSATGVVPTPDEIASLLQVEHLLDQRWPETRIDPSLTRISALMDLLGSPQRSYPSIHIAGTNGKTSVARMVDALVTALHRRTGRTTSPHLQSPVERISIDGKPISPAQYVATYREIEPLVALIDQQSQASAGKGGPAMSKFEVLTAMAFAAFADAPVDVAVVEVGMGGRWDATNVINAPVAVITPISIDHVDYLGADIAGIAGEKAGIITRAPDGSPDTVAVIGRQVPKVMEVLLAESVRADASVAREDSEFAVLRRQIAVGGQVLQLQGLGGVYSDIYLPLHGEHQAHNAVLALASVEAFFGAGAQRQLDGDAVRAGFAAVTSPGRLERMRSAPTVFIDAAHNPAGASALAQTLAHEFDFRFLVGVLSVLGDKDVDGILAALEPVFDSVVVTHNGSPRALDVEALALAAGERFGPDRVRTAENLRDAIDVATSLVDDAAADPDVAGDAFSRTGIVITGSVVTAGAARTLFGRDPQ
T2 sequence (O28028 whole entry): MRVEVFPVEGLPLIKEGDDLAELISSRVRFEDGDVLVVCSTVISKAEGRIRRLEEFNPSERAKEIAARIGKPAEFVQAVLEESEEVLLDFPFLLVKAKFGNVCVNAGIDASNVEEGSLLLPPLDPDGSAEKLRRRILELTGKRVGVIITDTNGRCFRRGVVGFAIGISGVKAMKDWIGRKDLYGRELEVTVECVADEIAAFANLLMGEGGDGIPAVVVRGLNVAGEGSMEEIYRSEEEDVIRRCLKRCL
Sequence of Mtb-FbiB (P9WP79 whole entry): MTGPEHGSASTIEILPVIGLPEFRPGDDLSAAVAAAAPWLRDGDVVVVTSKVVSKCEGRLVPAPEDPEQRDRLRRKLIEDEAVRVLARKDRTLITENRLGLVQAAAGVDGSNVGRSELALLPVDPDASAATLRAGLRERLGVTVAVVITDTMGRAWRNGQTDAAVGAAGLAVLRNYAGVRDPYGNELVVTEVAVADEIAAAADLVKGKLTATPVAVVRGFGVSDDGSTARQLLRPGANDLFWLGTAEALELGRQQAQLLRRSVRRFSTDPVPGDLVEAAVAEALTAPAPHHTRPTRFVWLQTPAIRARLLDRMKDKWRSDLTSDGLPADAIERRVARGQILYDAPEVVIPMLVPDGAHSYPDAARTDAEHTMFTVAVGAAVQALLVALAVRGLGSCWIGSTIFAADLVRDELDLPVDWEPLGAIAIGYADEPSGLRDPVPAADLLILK

N[C@@H](CC[N+](=O)[O-])C(=O)O [4-nitro-L-2-aminobutyric acid, (2S)-2-Amino-4-nitrobutanoic acid]
LC-MS of reaction products [1]: acts as a substrate across all enzymes and both cofactors | LC-MS of reaction products [2]: acts as a substrate across all enzymes and both cofactors | LC-MS of reaction products [3]: acts as a substrate across all enzymes and both cofactors | LC-MS of reaction products [4]: acts as a substrate across all enzymes and both cofactors

Nc1nc2ncc(CNc3ccc(C(=O)N[C@@H](CCC(=O)N[C@@H](CCC(=O)O)C(=O)O)C(=O)O)cc3)nc2c(=O)[nH]1 [folate-2, pteroyldi-γ-L-glutamic acid]
1H NMR of reaction [5]: pre-incubation with Tm-DHFR initiated the production of tetrahydrofolate-2 | LC-MS of reaction products [3]: addition of only a single L-glutamate molecule to afford folate-3 as the major product
